Measured values taken from patent US12357626B2, “Anthranilic acid-based compound, and Pin1 inhibitor, therapeutic agent for inflammatory diseases and therapeutic agent for cancer that use the same” (Amenis Bioscience, Inc., priority 2017, dated 2025).

Key:
Pin1 = molecular target: T1, Pin1 (Homo sapiens, UniProt Q13526); assay: Cell-based evaluation of Pin1 inhibition activity with AMPK phosphorylation level as index (293T cells, Western blot); parameters: key: +++: a higher level of AMPK phosphorylation is promoted, as compared with C1; ++: a similar level of AMPK phosphorylation is promoted, as compared with C1; +: a lower level of AMPK phosphorylation is promoted, as compared with C1; −: no or almost no promotion is found in AMPK phosphorylation; conditions: compound at 100 μM, 30 minutes, then 10 mM 2-DG for one hour, pAMPK level compared with C1
T1 construct: endogenous in cells; host or cells: 293T cells
Description: To evaluate the inhibitory activity of each compound synthesized in Example 1 against the function of Pin1, a cell-based assay was performed according to the method previously developed by the inventors (Yusuke Nakatsu et al., Journal of Biological Chemistry, 2015, Vol. 290, No. 40, pp. 24255-24266), in which the phosphorylation level of AMPK (AMP-activated protein kinase), a protein whose phosphorylation is inhibited by Pin1, was examined as an index.
Briefly, 293T cells were plated on a collagen-coated 24-well plate. Forty-eight hours later, each compound synthesized in the preceding example (at 100 μM) was added to the plate, and the plate was left to stand in an incubator for 30 minutes. Subsequently, 10 mM 2-DG was added to the plate, and one hour later, each sample was collected with a buffer containing mercaptoethanol and SDS.
SDS-PAGE and blotting were performed, and blocking was then performed with 3% BSA for 1 hour, according to conventional protocols. Subsequently, a pAMPK antibody (Cell Signaling; diluted 1:2000 in Can Get Signal Solution 1, Toyobo) as a primary antibody, and an HRP-linked anti rabbit IgG (GE Healthcare; diluted 1:4000 in Can Get Signal Solution 2, Toyobo) as a secondary antibody were allowed to react at ambient temperature for 1 hour prior to detection.
The inhibitory activity against the function of Pin1 was evaluated by comparing the inhibition levels between each compound and a known Pin1 inhibitor, C1, as indicated below:
(+++): a higher level of AMPK phosphorylation is promoted, as compared with C1;
(++): a similar level of AMPK phosphorylation is promoted, as compared with C1;
(+): a lower level of AMPK phosphorylation is promoted, as compared with C1;
(−): no or almost no promotion is found in AMPK phosphorylation.

[1] = tested on: non-alcoholic steatohepatitis (NASH) model mice (HFDT); conditions: intraperitoneal 2.5 mg/kg/day three times a week
Description: Animal experiments were performed using non-alcoholic steatohepatitis (NASH) model mice to test the compounds according to the present invention for the therapeutic effect on NASH.
NASH model mice (hereinafter referred to as “NASH mice”) were produced by feeding a high-fat diet containing trans fatty acids (HFDT) to individual male laboratory mice (C57BL/6J) for 8 weeks. The mice were divided into groups, and animal experiments were performed on a group of mice to which a compound according to the present invention (H-77) was administered intraperitoneally at a dose of 2.5 mg/kg/day three times a week, and a group of mice to which Juglone, a known Pin1 inhibitor, was administered intraperitoneally at a dose of 2.5 mg/kg/day three times a week, and a group of mice to which nothing was administered, during the 8-week HFDT feeding period. In addition, a normal diet was given to individual male laboratory mice (C57BL/6J) for 8 weeks to prepare control mice.

[2] = tested on: NASH mice (methionine-choline-deficient diet, MCDD); assay: NASH treatment study in MCDD-fed NASH mice; format: in vivo, mice (C57BL/6J); conditions: NASH mice given MCDD for 8 weeks; intraperitoneal 2.5 mg/kg/day three times a week; FIG. 3
Description: Next, an animal experiment was performed on NASH mice that were produced by feeding a methionine-choline-deficient diet (MCDD).

DU145 cells = assay: Cancer treatment study in nude mice implanted with DU145 tumors; format: in vivo, nude mice (BALB/c-slc-nu/nu mice); conditions: intraperitoneal 2.5 mg/kg/day 5 times a week for 9 weeks, versus control mice
Description: An animal experiment was performed using mice transplanted with cancer cells to test the therapeutic effects of the compounds according to the present invention on cancer.
A first tumor (DU145 cells) with Matrigel plug was implanted in the middle of the upper back of nude mice (BALB/c-slc-nu/nu mice).
Five weeks after the first implantation, a second tumor (DU145 cells) was implanted in the middle of the left and right sides of the back of the nude mice.
Intraperitoneal administration of a compound according to the present invention, H-77, at a dose of 2.5 mg/kg/day and a frequency of 5 times a week was started 6 weeks after the first implantation, at which the first tumor became measurable (at this timing, the second tumor was so small in size and not measurable), and was continued for 9 weeks. No compound was administered to a group of mice to prepare control mice.
The volume of the second tumor was so small and not measurable at the beginning of administration of the compound. Therefore, the result from the second tumor is expressed in volume (mm^3), but not in ratio.

T1 sequence (Q13526 whole entry): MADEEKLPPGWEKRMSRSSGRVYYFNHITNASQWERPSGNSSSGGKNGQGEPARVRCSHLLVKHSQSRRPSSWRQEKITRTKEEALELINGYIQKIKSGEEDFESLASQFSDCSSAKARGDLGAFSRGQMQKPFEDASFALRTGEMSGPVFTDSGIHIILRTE

Row | Compound | Pin1 inhibition activity (Pin1) | further results
1 | O=C(COc1ccc2ccccc2c1)Nc1ccc(OCc2ccccc2)cc1C(=O)O [Compound H-362] | + | 
2 | O=C(Nc1ccc(OCc2ccccc2)cc1C(=O)O)c1cccc(Oc2ccccc2)c1 [Compound H-363] | + | 
3 | Nc1ccc(OCc2ccc3ccccc3c2)cc1C(=O)O [Compound H-443] | + | 
4 | COC(=O)c1cc(OCc2ccccc2)ccc1NC(=O)c1ccc2ccccc2c1 [Compound H-68] | + | 
5 | CC(=O)Nc1ccc(OCc2ccccc2)cc1C(=O)O [Compound H-296, reference compound] | − | 
6 | O=C1C=CC(=O)c2c(O)cccc21 [Juglone, reference compound] |  | death of the mice during the study ([1]; NASH mice given HFDT for 8 weeks): all dead within 8 weeks
7 | CC(=O)Nc1ccc(OCc2ccc3ccccc3c2)cc1C(=O)O [Compound H-297] | +++ | 
8 | O=C(O)c1cc(OCc2ccccc2)ccc1NC(=O)c1cccc2ccccc12 [Compound H-370] | + | 
9 | O=C(O)c1cc(OCc2ccccc2)ccc1NS(=O)(=O)c1ccc2ccccc2c1 [Compound H-338] | + | 
10 | COC(=O)c1cc(OCc2ccc3ccccc3c2)ccc1N [Compound H-300] | +++ | 
11 | O=C(Nc1ccc(OCc2ccccc2)cc1C(=O)O)c1ccc2ccccc2c1 [Compound H-77] | +++ | liver weight ([1]; NASH mice given HFDT for 8 weeks, FIG. 1 (A)): increase in liver weight was reduced; blood AST (GOT) concentration ([1]; NASH mice given HFDT for 8 weeks, FIG. 1 (B)): AST value was decreased; fat accumulation in liver tissue (microscopic observation of sections) ([1]; NASH mice given HFDT, FIG. 2): reduced fat accumulation; hepatic fibrosis (liver tissue sections with Azan staining) [2]: hepatic fibrosis was significantly inhibited; tumor volume ratio of the first tumor (DU145 cells; first DU145 tumor, FIG. 4 (A)): tumor size growth was suppressed; volume of the second tumor (DU145 cells; second DU145 tumor, FIG. 4 (B)): tumor size growth was suppressed
12 | COC(=O)c1cc(OCc2ccc3ccccc3c2)ccc1NC(C)=O [Compound H-182] | ++ | 
13 | O=C(Nc1ccc(OCc2ccc3ccccc3c2)cc1C(=O)O)c1ccc2ccccc2c1 [Compound H-371] | + | 
14 | O=C(O)c1cc(OCc2ccc3ccccc3c2)ccc1NS(=O)(=O)c1ccc2ccccc2c1 [Compound H-376] | + | 
15 | O=C(Nc1ccc(OCc2ccccc2)cc1C(=O)O)c1ccc2ccccc2n1 [Compound H-339] | + | 
